Measured values as given in US20110166121A1 (LG LIFE SCIENCES LTD., priority 2008, published 2011).

Legend:
[1] = tested on: Human platelet aggregation caused by ADP; experiment: Inhibition of ADP-induced platelet aggregation (Mimic-human PRP); assay type: cell-based; details: 20 μM ADP, human platelet concentrate diluted with PPP, absorption at 595 nm
In short: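 Ki came from non-linear sigmoidal fits of inhibition, measured as the 3-min rise in absorbance at 595 nm after 20 μM ADP, relative to 0/20 μM ADP controls. Platelets (3–4×10^8/mL in PPP-diluted human PRP) were exposed to 0.01–30 μM compound for 20 min at room temperature beforehand.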

Human P2Y12 receptor = biological target: T1, Human P2Y12 receptor (Homo sapiens, UniProt Q9H244); experiment: Human P2Y12 receptor cell membrane binding assay with [3H] 2-Mes-ADP; details: 1 nM [3H] 2-Mes-ADP, membranes of HEK cells expressing P2Y12 receptor; read-out: Binding activity (IC50)
T1 construct: expressed in transfected cells; host or cells: HEK cells
In short: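 Competition binding used 1 nM [3H]2-MeS-ADP on P2Y12-expressing HEK cell membranes for 1 h at room temperature, followed by filtration and scintillation counting.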

T1 sequence (Q9H244 whole entry): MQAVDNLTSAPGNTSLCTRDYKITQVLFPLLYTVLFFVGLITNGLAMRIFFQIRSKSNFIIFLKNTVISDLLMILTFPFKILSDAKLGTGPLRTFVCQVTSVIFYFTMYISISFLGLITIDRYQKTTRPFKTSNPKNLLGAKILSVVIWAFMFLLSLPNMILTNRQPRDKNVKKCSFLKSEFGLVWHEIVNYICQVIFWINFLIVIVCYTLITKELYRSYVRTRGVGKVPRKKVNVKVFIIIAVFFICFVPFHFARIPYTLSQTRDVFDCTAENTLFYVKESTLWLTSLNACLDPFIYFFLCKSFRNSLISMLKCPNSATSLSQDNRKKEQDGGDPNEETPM

Structure (SMILES) | Ki [1] | IC50 (Human P2Y12 receptor)
CCCc1cc2c(N3CCn4c(nnc4C(F)(F)F)C3)nc(N3CC[C@H](O)C3)nc2s1 [Example 1-16, (S)-1-[6-Propyl-4-(3-trifluoromethyl-5,6-dihydro-8H-[1,2,4]triazolo[4,3-a]pyrazin-7-yl)-thieno[2,3-d]pyrimidin-2-yl]-pyrrolidin-3-ol] | 45 nM | 36 nM
CCCc1cc2c(N3CCn4c(nnc4C(F)(F)F)C3)nc(N3CC[C@@H](O)C3)nc2s1 [Example 1-17, (R)-1-[6-Propyl-4-(3-trifluoromethyl-5,6-dihydro-8H-[1,2,4]triazolo[4,3-a]pyrazin-7-yl)-thieno[2,3-d]pyrimidin-2-yl]-pyrrolidin-3-ol] | 80 nM | 41 nM
CCCc1cc2c(N3CCn4c(nnc4C(F)(F)F)C3)nc(N3CCC(=O)C3)nc2s1 [Example 1-18, 1-[6-Propyl-4-(3-trifluoromethyl-5,6-dihydro-8H-[1,2,4]triazolo[4,3-a]pyrazin-7-yl)-thieno[2,3-d]pyrimidin-2-yl]-pyrrolidin-3-one] | 34 nM | 54 nM
CCCc1cc2c(N3CCn4c(nnc4C(F)(F)F)C3)nc(N3CCC(=NO)C3)nc2s1 [Example 1-19, 1-[6-Propyl-4-(3-trifluoromethyl-5,6-dihydro-8H-[1,2,4]triazolo[4,3-a]pyrazin-7-yl)-thieno[2,3-d]pyrimidin-2-yl]-pyrrolidin-3-one oxime] | 56 nM | 55 nM
CCCc1cc2c(N3CCn4c(nnc4C(F)(F)F)C3)nc(N3CCC(=NOC)C3)nc2s1 [Example 1-20, 1-[6-Propyl-4-(3-trifluoromethyl-5,6-dihydro-8H-[1,2,4]triazolo[4,3-a]pyrazin-7-yl)-thieno[2,3-d]pyrimidin-2-yl]-pyrrolidin-3-one O-methyloxime] | 190 nM | 163 nM
CCCc1cc2c(N3CCn4c(nnc4C(F)(F)F)C3)nc(N3CCC(=NOCc4ccccc4)C3)nc2s1 [Example 1-21, 1-[6-Propyl-4-(3-trifluoromethyl-5,6-dihydro-8H-[1,2,4]triazolo[4,3-a]pyrazin-7-yl)-thieno[2,3-d]pyrimidin-2-yl]-pyrrolidin-3-one O-benzyloxime] | 220 nM | 452 nM
CCCc1cc2c(N3CCn4c(nnc4C(F)(F)F)C3)nc(N3CC[C@H](OC(C)=O)C3)nc2s1 [Example 1-22, Acetic Acid (S)-1-[6-propyl-4-(3-trifluoromethyl-5,6-dihydro-8H-[1,2,4]triazolo[4,3-a]pyrazin-7-yl)-thieno[2,3-d]pyrimidin-2-yl]-pyrrolidin-3-yl ester] | 130 nM | 65 nM
CCCc1cc2c(N3CCn4c(nnc4C(F)(F)F)C3)nc(N3CC[C@@H](OC(C)=O)C3)nc2s1 [Example 1-23, Acetic Acid (R)-1-[6-propyl-4-(3-trifluoromethyl-5,6-dihydro-8H-[1,2,4]triazolo[4,3-a]pyrazin-7-yl)-thieno[2,3-d]pyrimidin-2-yl]-pyrrolidin-3-yl ester] | 94 nM | 90 nM
CCCc1cc2c(N3CCn4c(nnc4C(F)(F)F)C3)nc(N3CCC(OC)C3)nc2s1 (stereo not shown) [Example 1-24, 7-[2-(3-Methoxy-pyrrolidin-1-yl)-6-propyl-thieno[2,3-d]pyrimidin-4-yl]-3-trifluoromethyl-5,6,7,8-tetrahydro-[1,2,4]triazolo[4,3-a]pyrazine] | 88 nM | 54 nM
CCCc1cc2c(N3CCn4c(nnc4C(F)(F)F)C3)nc(N3CCN(C)C(=O)C3)nc2s1 [Example 1-25, 1-Methyl-4-[6-propyl-4-(3-trifluoromethyl-5,6-dihydro-8H-[1,2,4]triazolo[4,3-a]pyrazin-7-yl)-thieno[2,3-d]pyrimidin-2-yl]-piperazin-2-one] | 100 nM | 32 nM
CCCc1cc2c(N3CCn4c(nnc4C(F)(F)F)C3)nc(N3CCC(O)CC3)nc2s1 [Example 1-26, 1-[6-Propyl-4-(3-trifluoromethyl-5,6-dihydro-8H-[1,2,4]triazolo[4,3-a]pyrazin-7-yl)-thieno[2,3-d]pyrimidin-2-yl]-piperidin-4-ol] | 1200 nM | 60 nM
